B1: Glychr19.trna2: top performing glycine ACE-tRNA UGA suppressor, SEQ ID NO: 53 (nucleic acid)
chain: GCGTTGGTGGTATAGTGGTTAGCATAGCTGCCTTCAAAGCAGTTGACCCGGGTTCGATTCCCGGCCAACGCA
modifications: chemistry not fully specified

Experiments:
[1] = tested on: histidinol dehydrogenase (HDH) N94-TGA; assay: Mass spectrometry of suppressed histidinol dehydrogenase (cognate amino acid encoding); format: cell-based, E. coli; details: MS/MS of tryptic fragment
From the text: (§1) For expression in mammalian cells, the cDNA for the coding region and 200 base-pair of the 3′ untranslated region (UTR) of human CFTR was ligated into pcDNA3.1(+) (Promega, USA) using the KpnI and XbaI restriction enzymes. The G542tga and W1282tga mutations were introduced using QuickChange XL II (Stratagene, USA). For expression in Xenopus laevis oocytes, the cDNA for the coding region and 140 base-pair of the 5′ and 244 base-pair 3′ UTR of human CFTR was ligated into pGEM-HE (Promega, USA). Bothe the G542tga and W1282tga mutations were introduced using QuickChange XL II. The cDNA encoding the E. coli histidinol dehydrogenase was codon optimized for Mus musculus and synthesized (BioBasic Inc, Canada) with a c-terminal 8xHis-Strep-tag for protein purification from mammalian cells. The synthesized cDNA was ligated into pcDNA3.1(+) using EcoRI and XhoI restriction sites. The nonsense mutations tag, taa and tga were introduced using QuickChange XL II. […]

[2] = tested on: CFTR W1282X; assay: CFTR W1282X rescue, western blot in HEK cells; format: cell-based, human; details: CFTR W1282X cDNA co-expressed in HEK cells, antibody M3A7
Method: To assess is these novel tRNA could rescue CFTR channels harboring nonsense codons, they were co-expressed in mammalian HEK cells with a CFTR W1282X cDNA plasmid. The cellular preparations were analyzed by standard biochemical approaches via Western blot assessment of CFTR protein. […] Specifically, the “B” and “C” bands represent the full-length and fully mature, post-translationally proceeded CFTR protein at the cell surface, respectively. […] FIG. 9.
as §1, with “sites.” for “sites. The nonsense mutations tag, taa and tga were introduced using QuickChange XL II.”

| Molecule | mass modification of Asn at HDH N94 [1] | rescue of full-length CFTR protein (B and C bands) [2] |
| --- | --- | --- |
| Trpchr17.trna39: top performing tryptophan ACE-tRNA UGA suppressor, SEQ ID NO: 48 | +72 Da | robust populations of ‘B’ and ‘C’ CFTR immunopositive (antibody MA37) bands |
| B1 | −57 Da | robust populations of ‘B’ and ‘C’ CFTR immunopositive (antibody MA37) bands |

Reference: US20230203482A1, “Methods of Rescuing Stop Codons via Genetic Reassignment with ACE-tRNA” (THE WISTAR INSTITUTE OF ANATOMY AND BIOLOGY, priority 2017, published 2023)
